Data set [1] concerns anesthetized rabbits made hypertensive by AII infusion. The experiment in a line: In vivo: anesthetized rabbits made hypertensive by AII infusion, IV boluses of compound. Details: species or system New Zealand White rabbits. The conditions noted are these: for AII antagonistic effect: doses of 2 and 3.5 mol, cumulative IV boluses, potency order 22, 20, 15, 18, 23, 21, 30, 29; for in vivo antihypertensive potency / activity, relative, in words: anesthetized rabbits, angiotensin II-induced hypertension. How it is done:
The applicant has also established an in vivo assay using anesthetized rabbits in [Onassis 30 Cardiac Institute] which allows us to estimate relative potencies.
The assay is a routine assay and constitutes a convenient method to measure activities of AII antagonists.
In vivo experiments: Adult normotensive male New Zealand White rabbits weighing between 2.5 and 3.3 kg were used in the study following previously described methods.^46,47 In brief, animals were anesthetized by pentobarbitone (30 mg/kg), intubated and mechanically ventilated with 100% oxygen using a respirator for small animals (MD Industries, Mobile, Ala., USA). The tidal volume was 15 ml and the rate was adjusted to keep blood gases within normal rage. Two polyethylene catheters were inserted, one in the carotid artery for continuous blood pressure monitoring via a transducer attached to a multichannel recorder (Nihon-Kohden, Model 6000, Japan) and the other one in the jugular vein for the administrations of solution made by diluting Angiotensin II (AII) (Hypertensin, CIBA) in 5% dextrose at final concentration of 5 µg/ml. Based on previous testing with this rabbit preparation submaximal angiotensin II-dependent hypertension was induced by infusing Angiotensin via a syringe pump (Harvard Apparatus Pump 22, Harvard Apparatus, Natick. Mass., USA) at a constant rate of 0.2 ml/min ([…]). […] Five minutes after the establishment of hypertension, two cumulative IV boluses of each compound (2 and 3.5 mol) were given via an ear vein 20 minutes apart. The blood pressure was monitored for 20 minutes after the second bolus and then angiotensin infusion was halted and blood pressure was recorded for an additional period of 20 minutes until the end of the experiment. Boluses of the same dose of Losartan, as positive control, were used in the same experimental model.
The antihypertensive effect and the degree of potency of these compounds were tested in a preparation of anesthetized rabbits made hypertensive by AII infusion.

For the next data set, the target named is T1, human AT1 (Homo sapiens, UniProt P30556).
T1 construct: purchased PerkinElmer Life Sciences, Inc., Boston, Mass., USA
T1 sequence (P30556 1-359): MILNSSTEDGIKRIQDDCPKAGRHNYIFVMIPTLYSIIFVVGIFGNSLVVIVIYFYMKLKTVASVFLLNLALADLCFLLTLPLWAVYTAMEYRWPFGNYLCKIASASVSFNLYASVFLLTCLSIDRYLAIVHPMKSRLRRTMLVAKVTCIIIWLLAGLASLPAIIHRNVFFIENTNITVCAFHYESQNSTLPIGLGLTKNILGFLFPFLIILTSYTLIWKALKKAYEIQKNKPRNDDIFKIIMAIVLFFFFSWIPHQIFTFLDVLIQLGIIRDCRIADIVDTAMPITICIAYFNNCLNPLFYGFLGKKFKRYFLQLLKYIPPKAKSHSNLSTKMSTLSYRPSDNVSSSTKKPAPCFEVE
The experiment in a line: In vitro binding, membranes containing AT1 receptor, radioligand [125I]Sar1,Ile8-Angiotensin II.

Data set [2] concerns conscious rabbits made hypertensive by angiotensin II infusion. To be noted: 15 mg mixed with vaseline applied on bare skin. The source says: Conscious rabbits were made hypertensive by angiotensin II infusion. A mixture of 1 5 mgr of our lipophilic angiotensin II receptor blocker compound 20 (or its dialkylated counterpart) with vaseline was applied on bare skin.
Another data set has as its system rat isolated uterus. To be noted: cited from earlier work.
For another data set, the system named is anesthesized rabbits. To be noted: rabbit, in vivo; cited from earlier work.

This is an account of results in patent US8563586B2, “1,(3,)5-substituted imidazoles, their use in the treatment of hypertension and methods for their preparation” (Eldrug S.A., priority 2007, dated 2013).

Entries after “also recorded” stand apart in the source; their conditions may differ.

As to `Cc1cn(C(c2ccccc2)(c2ccccc2)c2ccccc2)cn1` [Compound 15, 3-(Triphenylmethyl)-5-methylimidazole], the AII antagonistic effect entry in data set [1] is “dose-dependent AII antagonistic effect”.
As to `CCCCc1cncn1Cc1ccc(-c2ccccc2-c2nnn(C(c3ccccc3)(c3ccccc3)c3ccccc3Cl)n2)cc1` [Compound 18, 5-Butyl-1-[[2′-[[N-(2-chloro-triphenylmethyl)]tetrazol-5-yl]biphenyl-4-yl]methyl]imidazole], in data set [1], the “in vivo antihypertensive potency / activity, relative, in words” value was “more potent; also recorded: less potent compared to 20 and 25”; the AII antagonistic effect entry is recorded as “dose-dependent AII antagonistic effect”.
`CCCCc1cnc(CO)n1Cc1ccc(-c2ccccc2-c2nnn(C(c3ccccc3)(c3ccccc3)c3ccccc3Cl)n2)cc1` [Compound 20, 5-Butyl-2-hydroxymethyl-1-[[2′-[[N-(2-chloro-triphenylmethyl)]tetrazol-5yl]biphenyl-4-yl]methyl]imidazole]: on human AT1 (in vitro binding studies), the “affinity for AT1 receptor, in words, relative to Losartan” value is “lower affinity”. Also, in data set [2], the “blood pressure lowered by” value is recorded as 20 mmHg and the “duration of blood pressure lowering” value is on record as “two”. For the same molecule, in data set [1], the “in vivo antihypertensive potency / activity, relative, in words” value is reported as “highly potent; also recorded: more potent compared to 18; also recorded: most potent” and the AII antagonistic effect entry is “dose-dependent AII antagonistic effect”.
As for `Cc1cnc(CO)n1Cc1ccc(-c2ccccc2-c2nnn(C(c3ccccc3)(c3ccccc3)c3ccccc3Cl)n2)cc1` [Compound 21, 5-Methyl-2-hydroxymethyl-1-[[2′-[[N-(2-chloro-triphenylmethyl)]tetrazol-5-yl]biphenyl-4-yl]methyl]imidazole], in data set [1], the “in vivo antihypertensive potency / activity, relative, in words” value was “less potent; also recorded: least active” and the AII antagonistic effect entry is “dose-dependent AII antagonistic effect”.
A word on the IC50: it is the concentration that gives 50% inhibition. Take `CCCCc1cnc(CO)n1Cc1ccc(-c2ccccc2-c2nnn[nH]2)cc1` [Compound 22, 5-butyl-2-hydroxymethyl-1-[[2′-(1H-tetrazol-5-yl)biphenyl-4-yl]methyl]imidazole]: the “fold lower affinity for the AT1 receptor than that of Losartan” value on human AT1 (from IC50 values) is approximately 3 fold. The IC50 on human AT1 (membranes containing AT1 receptors, competition with 0.1 nM [125I]Sar1,Ile8-Angiotensin II, read-out: IC50, affinity for the AT1 receptor) stood at 53.8 ± 6.4 nM. In addition, in data set [1], the “in vivo antihypertensive potency / activity, relative, in words” value is on record as “highly potent; also recorded: more potent compared to 18; also recorded: slightly superior in activity; also recorded: most potent” and the AII antagonistic effect entry is “dose-dependent AII antagonistic effect”.
For the molecule `Cc1cnc(CO)n1Cc1ccc(-c2ccccc2-c2nnn[nH]2)cc1` [Compound 23, 5-methyl-2-hydroxymethyl-1-[[2′-(1H-tetrazol-5-yl)biphenyl-4-yl]methyl]imidazole], in data set [1], the “in vivo antihypertensive potency / activity, relative, in words” value is listed as “less potent” and the AII antagonistic effect entry is on record as “dose-dependent AII antagonistic effect”.
In general, melting point refers to the temperature of the solid-liquid transition. `CCCCc1cncn1Cc1ccc(-c2ccccc2-c2nnnn2Cc2ccccc2)cc1` [Compound 24, 1-[[2′-[(N-benzyl)tetrazol-5-yl]biphenyl-4-yl]methyl]-5-butylimidazole] displayed a melting point of 69 to 71 °C.
In the case of `CCCCc1cnc(CO)n1Cc1ccc(-c2ccccc2-c2nnnn2Cc2ccccc2)cc1` [Compound 25, 1-[[2′-[(N-benzyl)tetrazol-5-yl]biphenyl-4-yl]methyl]-5-butyl-2hydroxymethyl imidazole], the “in vivo antihypertensive potency / activity, relative, in words” value in data set [1] is given as “more potent compared to 18; also recorded: most potent”.
For `c1ccc(Cn2nnnc2-c2ccccc2-c2ccc(Cn3cnc4ccccc43)cc2)cc1` [Compound 28, 1-[[2′-[(N-benzyl)tetrazol-5-yl]biphenyl-4-yl]methyl]benzimidazole], the melting point was 62 to 64 °C. Further, the “in vivo antihypertensive potency / activity, relative, in words” value in data set [1] is “even less potent”.
`OCc1nc2ccccc2n1Cc1ccc(-c2ccccc2-c2nnnn2Cc2ccccc2)cc1` [Compound 29, 1-[[2′-[(N-benzyl)tetrazol-5-yl]biphenyl-4-yl]methyl]-2-hydroxymethyl benzimidazole] had a melting point of 62 to 63 °C. Moreover, in data set [1], the “in vivo antihypertensive potency / activity, relative, in words” value was “even less potent” and the AII antagonistic effect entry is reported as “dose-dependent AII antagonistic effect”.
For the molecule `OCc1nc2ccccc2n1Cc1ccc(-c2ccccc2-c2nnn[nH]2)cc1` [Compound 30, 2-hydroxymethyl-1-[[2′-(1H-tetrazol-5-yl)biphenyl-4-yl]methyl]benzimidazole], in data set [1], the “in vivo antihypertensive potency / activity, relative, in words” value is on record as “even less potent; also recorded: least active” and the AII antagonistic effect result is on record as “dose-dependent AII antagonistic effect”.
For the molecule [Sar^1, Lys^3, Glu^5] ANG II, in the data set with rat isolated uterus, the “activity in the rat uterus assay” value is reported as “agonist activity”. For the same molecule, the “activity in anesthesized rabbits” value in the data set with anesthesized rabbits is listed as “agonist activity”.
